Experimental data taken from patent US7932270B2 (Cytokinetics, Inc., priority 2006, dated 2011).

Target: T1, chicken gizzard smooth muscle myosin subfragment-1 chemically crosslinked to cardiac or skeletal actin (Gallus gallus, UniProt P10587)
T1 construct: chicken gizzard smooth muscle myosin subfragment-1; from tissue; host or cells: chicken gizzard
Assay: Smooth muscle myosin ATPase dose response assay (pyruvate kinase/horseradish peroxidase/pyruvate oxidase-coupled, amplex red fluorescence)
Type: biochemical
Details: read-out: IC50 Arithmetic Mean
Method in brief: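 Readout is amplex red signal from coupled ATPase of actin-crosslinked gizzard myosin S1 (0.15 mM ATP, 12 mM K-PIPES, pH 7.00). IC50 is the half-maximal activity point of a four-parameter Hill fit.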

T1 sequence (P02607 2-151): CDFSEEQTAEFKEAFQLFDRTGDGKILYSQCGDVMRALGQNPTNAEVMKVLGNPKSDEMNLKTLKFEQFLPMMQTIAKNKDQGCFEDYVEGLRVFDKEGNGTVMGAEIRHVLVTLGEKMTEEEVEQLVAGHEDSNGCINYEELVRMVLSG
T1 sequence (P10587 84-789): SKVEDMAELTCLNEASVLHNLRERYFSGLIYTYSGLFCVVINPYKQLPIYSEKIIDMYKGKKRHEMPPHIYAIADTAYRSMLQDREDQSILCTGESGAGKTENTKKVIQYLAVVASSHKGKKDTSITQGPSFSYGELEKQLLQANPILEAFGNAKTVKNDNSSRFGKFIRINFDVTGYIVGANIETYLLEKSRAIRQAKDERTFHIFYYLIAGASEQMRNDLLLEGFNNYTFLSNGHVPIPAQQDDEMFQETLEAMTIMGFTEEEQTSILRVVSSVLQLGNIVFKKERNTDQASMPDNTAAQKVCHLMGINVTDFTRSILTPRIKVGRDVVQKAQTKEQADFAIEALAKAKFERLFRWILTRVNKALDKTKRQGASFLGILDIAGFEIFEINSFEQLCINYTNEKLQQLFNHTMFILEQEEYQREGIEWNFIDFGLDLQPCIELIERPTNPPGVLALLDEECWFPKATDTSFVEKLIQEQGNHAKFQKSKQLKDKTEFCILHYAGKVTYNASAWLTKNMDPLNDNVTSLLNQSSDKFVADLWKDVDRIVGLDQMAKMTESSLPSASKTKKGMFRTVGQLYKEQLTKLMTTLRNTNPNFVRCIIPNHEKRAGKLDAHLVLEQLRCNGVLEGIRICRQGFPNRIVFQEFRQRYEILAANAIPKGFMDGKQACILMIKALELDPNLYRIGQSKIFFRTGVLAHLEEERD

| IC50 [nM] | SMILES |
| --- | --- |
| 89 | C[C@H](CNC(=O)c1cc(F)c(-c2cnn(C)c2)nc1NCCc1cccc(F)c1)C(N)=O [N-((2R)-2-carbamoylpropyl)(5-fluoro-2-{[2-(3-fluorophenyl)ethyl]amino}-6-(1-methylpyrazol-4-yl)(3-pyridyl))carboxamide] |
| 16800 | CCS(=O)(=O)N1CCNC[C@@H]1CNC(=O)c1ccc(-c2ccccc2C#N)nc1NCCc1cccc(F)c1 [N-{[(2R)-1-(ethylsulfonyl)piperazin-2-yl]methyl}(6-(2-cyanophenyl)-2-{[2-(3-fluorophenyl)ethyl]amino}(3-pyridyl))carboxamide] |
| 39500 | NCc1ccc(-c2ccccc2)nc1NCCc1cccc(F)c1 [[3-(aminomethyl)-6-phenyl(2-pyridyl)][2-(3 fluorophenyl)ethyl]amine] |
| 56000 | O=C(NCc1cccnc1)c1cc(C(=O)NCc2cccnc2)c(-c2ccccc2)nc1NCCc1cccc(F)c1 [(2-{[2-(3-fluorophenyl)ethyl]amino}-6-phenyl-5-[N-(3-pyridylmethyl)carbamoyl](3-pyridyl))-N-(3-pyridylmethyl)carboxamide] |
| 336 | N#Cc1ccccc1-c1ccc(C(=O)NCC2CCNCC2)c(NCCc2cccc(F)c2)n1 [(6-(2-cyanophenyl)-2-{[2-(3-fluorophenyl)ethyl]amino}(3-pyridyl))-N-(4-piperidylmethyl)carboxamide] |
| 6820 | O=C(NC[C@@H]1CCCO1)c1ccc(-c2ccccc2)nc1NCCc1ccccn1 [N-[((2S)oxolan-2-yl)methyl]{6-phenyl-2-[(2-(2-pyridyl)ethyl)amino](3-pyridyl)}carboxamide] |
| 40 | Cn1cc(-c2ccc(C(=O)NCc3cccnc3)c(NCCc3cccc(F)c3)n2)cn1 |
| 3560 | CN(C)C(=O)CCNc1nc(-c2ccccc2C#N)ccc1C(=O)NC[C@H]1CCCN1C(=O)CCCN [3-{[3-(N-{[(2R)-1-(4-aminobutanoyl)pyrrolidin-2-yl]methyl}carbamoyl)-6-(2-cyanophenyl)(2-pyridyl)]amino}-N,N-dimethylpropanamide] |
| 17000 | CN1CCN(C(=O)CCN)C[C@@H]1CNC(=O)c1ccc(-c2ccccc2C#N)nc1NCCc1cccc(F)c1 [N-{[(2S)-4-(3-aminopropanoyl)-1-methylpiperazin-2-yl]methyl}(6-(2-cyanophenyl)-2-{[2-(3-fluorophenyl)ethyl]amino}(3-pyridyl))carboxamide] |
| 32 | N#Cc1ccccc1-c1ccc(C(=O)NCCc2cccc(CN)n2)c(NCCc2cccc(F)c2)n1 [N-{2-[6-(aminomethyl)(2-pyridyl)]ethyl}(6-(2-cyanophenyl)-2-{[2-(3-fluorophenyl)ethyl]amino}(3-pyridyl))carboxamide] |
| 13200 | NCCCN1C(=O)CC[C@@H]1CNC(=O)c1ccc(-c2ccccc2C(N)=O)nc1NCCc1cccc(F)c1 [2-[5-(N-{[(2R)-1-(3-aminopropyl)-5-oxopyrrolidin-2-yl]methyl}carbamoyl)-6-{[2-(3-fluorophenyl)ethyl]amino}-2-pyridyl]benzamide] |
| 289 | CC(C)(C)OC(=O)N1CC[C@@H]1CNC(=O)c1cc(F)c(-c2cn[nH]c2)nc1NCCc1cccc(F)c1 [tert-butyl (2R)-2-{[(5-fluoro-2-{[2-(3-fluorophenyl)ethyl]amino}-6-pyrazol-4-yl(3-pyridyl))carbonylamino]methyl}azetidinecarboxylate] |
| 261 | C[C@@H](N)C(=O)N1CCCC[C@@H]1CNC(=O)c1ccc(-c2ccccc2C#N)nc1NCCc1cccc(F)c1 [N-{[(2R)-1-((2R)-2-aminopropanoyl)(2-piperidyl)]methyl}(6-(2-cyanophenyl)-2-{[2-(3-fluorophenyl)ethyl]amino}(3-pyridyl))carboxamide] |
| 20300 | CS(=O)(=O)N1CCCC(CNC(=O)c2ccc(-c3ccccc3)nc2NCCc2ccccn2)C1 (stereo not shown) [N-{[1-(methylsulfonyl)(3-piperidyl)]methyl}{6-phenyl-2-[(2-(2-pyridyl)ethyl)amino](3-pyridyl)}carboxamide] |
| 158 | Cc1cc(C(=O)NCc2cccnc2CN)c(NCCc2cccc(F)c2)nc1-c1ccccc1C#N [N-{[2-(aminomethyl)(3-pyridyl)]methyl}(6-(2-cyanophenyl)-2-{[2-(3-fluorophenyl)ethyl]amino}-5-methyl(3-pyridyl))carboxamide] |
| 460 | N#Cc1ccccc1-c1ccc(C(=O)NCc2cccnc2)c(NCCc2ccccn2)n1 [{6-(2-cyanophenyl)-2-[(2-(2-pyridyl)ethyl)amino](3-pyridyl)}-N-(3-pyridylmethyl)carboxamide] |
| 154 | N#Cc1ccccc1-c1ccc(C(=O)NCCCCCN)c(NCCc2cccc(F)c2)n1 [N-(5-aminopentyl)(6-(2-cyanophenyl)-2-{[2-(3-fluorophenyl)ethyl]amino}(3-pyridyl))carboxamide] |

| IC50 [nM] | SMILES |
| --- | --- |
| 711 | O=C(NCc1cc[nH]n1)c1ccc(-c2ccccc2)nc1NCCc1ccccn1 [{6-phenyl-2-[(2-(2-pyridyl)ethyl)amino](3-pyridyl)}-N-(pyrazol-3-ylmethyl)carboxamide] |
| 96700 | CC(=O)N1CCC(CNC(=O)c2ccc(-c3ccccc3)nc2NCCc2ccccn2)CC1 [N-[(1-acetyl(4-piperidyl))methyl]{6-phenyl-2-[(2-(2-pyridyl)ethyl)amino](3-pyridyl)}carboxamide] |
| 314 | C[C@H](N)C(=O)N1CCCC1CNC(=O)c1cc(F)c(-c2cc[nH]n2)nc1NCCc1cccc(F)c1 (stereo partly drawn) [N-{[(2R)-1-((2S)-2-aminopropanoyl)pyrrolidin-2-yl]methyl}(5-fluoro-2-{[2-(3-fluorophenyl)ethyl]amino}-6-pyrazol-3-yl(3-pyridyl))carboxamide] |
| 2790 | CCc1ccc(-c2ccc(C(=O)NCc3cccnc3)c(NCCc3ccccn3)n2)cc1 [{6-(4-ethylphenyl)-2-[(2-(2-pyridyl)ethyl)amino](3-pyridyl)}-N-(3-pyridylmethyl)carboxamide] |
| 29 | N#Cc1ccccc1-c1ccc(C(=O)NCC2CCCC(=O)N2)c(NCCc2cccc(F)c2)n1 (stereo not shown) [(6-(2-cyanophenyl)-2-{[2-(3-fluorophenyl)ethyl]amino}(3-pyridyl))-N-[(6-oxo(2-piperidyl))methyl]carboxamide] |
| 55 | O=C(NCc1cccnc1)c1ccc(-c2ccccc2)nc1NCCc1cc(F)cc(F)c1 [(2-{[2-(3,5-difluorophenyl)ethyl]amino}-6-phenyl(3-pyridyl))-N-(3-pyridylmethyl)carboxamide] |
| 197 | C[C@H](CNC(=O)c1cc(F)c(-c2cnn(C)c2)nc1NCCc1cccc(F)c1)NC(=O)CO |
| 1780 | CN(CCNC(=O)c1ccc(-c2ccccc2C#N)nc1NCCc1cccc(F)c1)C(=O)CCN [3-amino-N-{2-[(6-(2-cyanophenyl)-2-{[2-(3-fluorophenyl)ethyl]amino}(3-pyridyl))carbonylamino]ethyl}-N-methylpropanamide] |
| 15100 | CCOC(=O)CNCC(O)c1ccc(-c2ccccc2)nc1NCCc1cccc(F)c1 (stereo not shown) [ethyl 2-{[2-(2-{[2-(3-fluorophenyl)ethyl]amino}-6-phenyl(3-pyridyl))-2-hydroxyethyl]amino}acetate] |
| 40 | O=C(NCc1cccnc1)c1ccc(-c2ccsc2)nc1NCCc1cc(F)cc(F)c1 [(2-{[2-(3,5-difluorophenyl)ethyl]amino}-6-(3-thienyl)(3-pyridyl))-N-(3-pyridylmethyl)carboxamide] |
| 28 | N#Cc1ccccc1-c1ccc(C(=O)NCc2cccnc2)c(NCCc2ccccc2F)n1 [(6-(2-cyanophenyl)-2-{[2-(2-fluorophenyl)ethyl]amino}(3-pyridyl))-N-(3-pyridylmethyl)carboxamide] |
| 783 | O=Cc1ccsc1-c1ccc(C(=O)NCc2cccnc2)c(NCCc2cccc(F)c2)n1 [(2-{[2-(3-fluorophenyl)ethyl]amino}-6-(3-formyl(2-thienyl))(3-pyridyl))-N-(3-pyridylmethyl)carboxamide] |
| 1750 | C[C@H](CNC(=O)c1cc(F)c(-c2cnn(C)c2)nc1NCCc1cccc(F)c1)NC(=O)CNC(=O)OC(C)(C)C |
| 40 | N#Cc1ccccc1-c1nc(NCCc2cccc(F)c2)c(C(=O)NC[C@H]2CCCN2C(=O)CN)cc1F [N-{[(2R)-1-(2-aminoacetyl)pyrrolidin-2-yl]methyl}(6-(2-cyanophenyl)-5-fluoro-2-{[2-(3-fluorophenyl)ethyl]amino}(3-pyridyl))carboxamide] |
| 416 | N#Cc1ccccc1-c1ccc(C(=O)NCCCCN)c(NCCc2cccc(F)c2)n1 [N-(4-aminobutyl)(6-(2-cyanophenyl)-2-{[2-(3-fluorophenyl)ethyl]amino}(3-pyridyl))carboxamide] |
| 22100 | O=C(NCc1cccnc1)c1ccc(-c2ccccc2)nc1NCCN1CCCCC1=O [(2-{[2-(2-oxopiperidyl)ethyl]amino}-6-phenyl(3-pyridyl))-N-(3-pyridylmethyl)carboxamide] |
| 619 | COC(=O)[C@@H](N)CNC(=O)c1ccc(-c2ccccc2C#N)nc1NCCc1cccc(F)c1 [methyl (2S)-2-amino-3-[(6-(2-cyanophenyl)-2-{[2-(3-fluorophenyl)ethyl]amino}(3-pyridyl))carbonylamino]propanoate] |

| SMILES | IC50 [nM] |
| --- | --- |
| Cn1cc(-c2nc(NCCc3cccc(F)c3)c(C(=O)NC[C@H]3CCN3C(=O)CNC(=O)OC(C)(C)C)cc2F)cn1 [N-[((2R)-1-{2-[(tert-butoxy)carbonylamino]acetyl}azetidin-2-yl)methyl](5-fluoro-2-{[2-(3-fluorophenyl)ethyl]amino}-6-(1-methylpyrazol-4-yl)(3-pyridyl))carboxamide] | 436 |
| Cn1cc(-c2nc(NCCc3cccc(F)c3)c(C(=O)NCCCNC(=O)OC(C)(C)C)cc2F)cn1 [N-{3-[(tert-butoxy)carbonylamino]propyl}(5-fluoro-2-{[2-(3-fluorophenyl)ethyl]amino}-6-(1-methylpyrazol-4-yl)(3-pyridyl))carboxamide] | 4500 |
| CC(C)(C)OC(=O)NCCC(=O)N1CCC[C@H](CNC(=O)c2ccc(-c3ccccc3C#N)nc2NCCc2cccc(F)c2)C1 [N-[((3R)-1-{3-[(tert-butoxy)carbonylamino]propanoyl}(3-piperidyl))methyl](6-(2-cyanophenyl)-2-{[2-(3-fluorophenyl)ethyl]amino}(3-pyridyl))carboxamide] | 3790 |
